In one data set the test system is HCT116 cells. Kind of data set: HCT116 cell proliferation assay (CellTiter-Glo, 10 days). The note with it: Homo sapiens, HCT-116, 240 h, growth inhibition, CTG assay Day 10. The class given is cell-based. The text has this: • I. Experimental materials and instruments • 1. HCT116 cell line (Nanjing Kebai Biotechnology Co., Ltd., CBP60028) • 2. HCT116 MTAP-/- cell line (Nanjing Kebai Biotechnology Co., Ltd., CBP75002) • 3. DMSO (Sigma, D2650) • 4. McCoy's 5A medium (Gibco, 16600-082) • 5. Foetal bovine serum (FBS) (Gibco, 10091148) • 6. Phosphate buffered saline (DPBS) pH 7.4 (Gibco, 14190-144) • 7. Pen strep (PS) (Gibco, 15140-122) • 8. 0.25% Typsin-EDTA (1×) (Gibco, 25200-072) • 9. CellTiter-Glo® Luminescent Cell Viability Assay (Promega, G7572) • 10. 96-well round-bottom plate (JET, TCP002096) • 11. 96-well black clear bottom plate (Hangzhou Xinyou Biotechnology Co., Ltd., 060096) • 12. 1.2 mL 96-well deep well plate, clear, sterile, square-well, V-bottom (Titan, 02089063) • 13. 15-mL centrifuge tube (Titan) • 14. Biosafety cabinet (Thermo, 1300AII) • 15. Cell counter (Countstar, IC1000) • 16. Incubator (Thermo, I160) • 17. Centrifuge (Beckman coulter, Allegra X-12 centrifuge) • 18. PHERAstar FS microplate reader (BMG Labtech) • II. Experimental procedure • 1. Cell plating (Day 0) • a) The cell morphology was observed under a microscope to ensure confluence reached approximately 90%. • b) The cell supernatant was aspirated, the cells were washed once with PBS, and then the PBS was removed; and the cells were digested by adding an appropriate amount of trypsin, and left to stand at 37°C for 3 minutes. • c) The digestion was terminated by adding an equal volume of McCoy's 5A medium containing 10% FBS, and the cell suspension was collected and centrifuged at 300 g for 3 minutes; and the cells were resuspended in an appropriate amount of fresh medium. • d) The resuspended cell suspension was taken for counting. • e) The cell suspension was diluted to 1e4/mL using McCoy's 5A medium containing 10% FBS, and seeded at 50 µL per well, corresponding to 500 cells/well for HCT116 and 500 cells/well for HCT116 MTAP-/-. • f) The cell plate was placed in a 37°C, 5% carbon dioxide incubator and incubated overnight. • 2. Compound treatment (Day 1) • a) Each compound was serially diluted in DMSO to generate a 9-point concentration gradient (starting concentration: 10000 µM, 3-fold dilution; the highest concentration may be adjusted individually based on IC50 of different compounds); for example, in a 96-well round-bottom compound-dilution plate, 5 µL of the compound was sequentially diluted into 10 µL of DMSO. • b) Each concentration point of every compound was then diluted 250-fold into the corresponding volume of McCoy's 5A medium. • c) To each cell plate, 50 µL of the diluted compound solution as described above was added sequentially to the cell supernatant (50 µL/well). • d) The compound-treated cell plate was placed in a 37°C, 5% carbon dioxide incubator and incubated. • 3. […]
(In general: In ATP-based viability assays light output follows the ATP content of the culture.)

The nature of data set [1]: Pharmacokinetic evaluation in Nu/Nu mice (plasma, LC-MS/MS). The class given is in vivo. The note with it: mouse, plasma, po, i.g., 100 mg/kg; for Vd/F: read-out: Apparent volume of distribution V/F; for AUC(0-t): read-out: Area under the curve AUC0-t; for CL/F: read-out: Clearance CL/F; for half-life: read-out: Half life T1/2 (converted); for Cmax: read-out: Plasma concentration Cmax. As to the method:
Using Nu/Nu mice as the test animals, the plasma concentrations of the example compounds at different time points were determined by LC-MS/MS following oral gavage (i.g.) administration. The pharmacokinetic behaviours of the compounds of the present disclosure in Nu/Nu mice were investigated, and their pharmacokinetic profiles were evaluated.
Compound 1-p1, compound 2-p1, compound 8-p1 and comparative example 1.
A total of 36 female Nu/Nu mice (supplied by Vital River Laboratory Animal Technology Co., Ltd.) were randomly divided into 4 groups.
An appropriate amount of each test compound was weighed and dissolved in 5% DMSO+20% PEG400+70% (10% TPGS)+5% (1% HMPC K100LV) to prepare a 10 mg/mL colourless clear solution.
The administration dosage was 100 mg/kg, and the administration volume was 10 mL/kg.
Mice were not fasted. After oral gavage administration, blood (0.1 mL) was collected from the orbital cavity before administration, and at 0.25 h, 0.5 h, 1.0 h, 2.0 h, 4.0 h, 6.0 h, 8.0 h, 11.0 h and 24.0 h after administration. The blood was placed into EDTA-K2 anticoagulant tubes and centrifuged at 10000 rpm for 1 minute (4°C) to separate plasma. The plasma was separated within 1 h and stored at -20°C until analysis. The entire process from blood collection to centrifugation was performed in ice bath conditions.
Determination of test compound contents in plasma of Nu/Nu mice after administration of different compounds: To 20 µL of plasma samples from each time point in Nu/Nu mice, 200 µL of acetonitrile and 25 µL of verapamil (100 ng/mL) were added. The mixture was vortex-mixed for 5 minutes and centrifuged at 4000 rpm for 15 minutes. 90 µL of water and 90 µL of the supernatant were vortex-mixed for 5 minutes. 2 µL (for compound 1-p1), 2 µL (for compound 2-p1), 1 µL (for compound 8-p1), or 0.5 µL (for comparative example 1) of the supernatant was taken for LC-MS/MS analysis receptively.

The next data set relates to HCT116 MTAP-/- cells. The experiment in a line: HCT116 MTAP-/- cell proliferation assay (CellTiter-Glo, 10 days). It counts as cell-based. The note with it: Homo sapiens, HCT-116, 240 h, growth inhibition, CTG assay Day 10. The text has this:
• I. Experimental materials and instruments • 1. HCT116 cell line (Nanjing Kebai Biotechnology Co., Ltd., CBP60028) • 2. HCT116 MTAP-/- cell line (Nanjing Kebai Biotechnology Co., Ltd., CBP75002) • 3. DMSO (Sigma, D2650) • 4. McCoy's 5A medium (Gibco, 16600-082) • 5. Foetal bovine serum (FBS) (Gibco, 10091148) • 6. Phosphate buffered saline (DPBS) pH 7.4 (Gibco, 14190-144) • 7. Pen strep (PS) (Gibco, 15140-122) • 8. 0.25% Typsin-EDTA (1×) (Gibco, 25200-072) • 9. CellTiter-Glo® Luminescent Cell Viability Assay (Promega, G7572) • 10. 96-well round-bottom plate (JET, TCP002096) • 11. 96-well black clear bottom plate (Hangzhou Xinyou Biotechnology Co., Ltd., 060096) • 12. 1.2 mL 96-well deep well plate, clear, sterile, square-well, V-bottom (Titan, 02089063) • 13. 15-mL centrifuge tube (Titan) • 14. Biosafety cabinet (Thermo, 1300AII) • 15. Cell counter (Countstar, IC1000) • 16. Incubator (Thermo, I160) • 17. Centrifuge (Beckman coulter, Allegra X-12 centrifuge) • 18. PHERAstar FS microplate reader (BMG Labtech) • II. Experimental procedure • 1. Cell plating (Day 0) • a) The cell morphology was observed under a microscope to ensure confluence reached approximately 90%. • b) The cell supernatant was aspirated, the cells were washed once with PBS, and then the PBS was removed; and the cells were digested by adding an appropriate amount of trypsin, and left to stand at 37°C for 3 minutes. • c) The digestion was terminated by adding an equal volume of McCoy's 5A medium containing 10% FBS, and the cell suspension was collected and centrifuged at 300 g for 3 minutes; and the cells were resuspended in an appropriate amount of fresh medium. • d) The resuspended cell suspension was taken for counting. • e) The cell suspension was diluted to 1e4/mL using McCoy's 5A medium containing 10% FBS, and seeded at 50 µL per well, corresponding to 500 cells/well for HCT116 and 500 cells/well for HCT116 MTAP-/-. • f) The cell plate was placed in a 37°C, 5% carbon dioxide incubator and incubated overnight. • 2. Compound treatment (Day 1) • a) Each compound was serially diluted in DMSO to generate a 9-point concentration gradient (starting concentration: 10000 µM, 3-fold dilution; the highest concentration may be adjusted individually based on IC50 of different compounds); for example, in a 96-well round-bottom compound-dilution plate, 5 µL of the compound was sequentially diluted into 10 µL of DMSO. • b) Each concentration point of every compound was then diluted 250-fold into the corresponding volume of McCoy's 5A medium. • c) To each cell plate, 50 µL of the diluted compound solution as described above was added sequentially to the cell supernatant (50 µL/well). • d) The compound-treated cell plate was placed in a 37°C, 5% carbon dioxide incubator and incubated. • 3. Re-digestion, re-plating and compound treatment (Day 5) • a) After 5 days of compound treatment, the compound-containing medium was aspirated, and the cells were rinsed once with PBS (100 µL/well); and the PBS was removed immediately. • b) The cells were digested by adding 25 µL of trypsin and incubated at 37°C for 3 minutes, and then the digestion was terminated by adding 175 µL/well of McCoy's 5A medium containing 10% FBS. • c) The cells were mixed thoroughly using a pipette, and re-plated at 1 : 20; and specifically, 10 µL of the cell suspension was aspirated to a new 96-well plate (pre-filled with 40 µL of McCoy's 5A medium containing 10% FBS. • d) Compounds were prepared and added according to steps a) to c) in Section 2, with 50 µL added per well. • e) The compound-treated cell plate was placed in a 37°C, 5% carbon dioxide incubator and incubated. • 4. […]

For `[2H]C([2H])([2H])n1ncc(-c2ccc3c(=O)[nH]nc(CN)c3c2)c1-c1c(F)cc2c(c1C#N)N1CCC[C@H]1CO2` (single isomer, unassigned) [Compound 8-p1], in the data set with HCT116 cells, the IC50 – broadly, the point on the concentration scale where inhibition reaches its midpoint – turned out to be 1450 nM. In data set [1], the Vd/F came to 23.9 L/kg, the AUC(0-t) was 7640 ng·h/mL, the CL/F is 218 mL/min/kg and the half-life is 78 min. Besides, the Cmax in data set [1] was 2530 ng/mL. Also, in the data set with HCT116 MTAP-/- cells, half-maximal inhibition (IC50) required 16.1 nM.
With `Cn1ncc(-c2ccc3c(=O)[nH]nc(CN)c3c2)c1-c1c(F)cc2c(c1C#N)O[C@H]1CC[C@H]1O2` (atropisomer, axis not shown; (M)) [Compound 1-p1, (M)-(2aS,8aR)-5-(4-(4-(aminomethyl)-1-oxo-1,2-dihydrophthalazin-6-yl)-1-methyl-1H-pyrazol-5-yl)-6-fluoro-1,2,2a,8a-tetrahydrobenzo[b]cyclobuta[e][1,4]dioxine-4-carbonitrile], 1450 nM corresponded to half-maximal inhibition with HCT116 cells (IC50). Also, in data set [1], the Vd/F worked out at 35.4 L/kg, the AUC(0-t) was 8650 ng·h/mL, the CL/F amounted to 189 mL/min/kg and the half-life was 132 min. In addition, the Cmax in data set [1] is 3250 ng/mL. The molecule also displayed an IC50 with HCT116 MTAP-/- cells of 11.9 nM.
For the molecule `[2H]C([2H])([2H])n1ncc(-c2ccc3c(=O)[nH]nc(CN)c3c2)c1-c1c(F)cc2c(c1C#N)O[C@H]1CC[C@H]1O2` (single isomer, unassigned) [Compound 2-p1], 1300 nM corresponded to half-maximal inhibition with HCT116 cells (IC50). In data set [1], the Vd/F was determined as 23.3 L/kg, the AUC(0-t) was determined as 7140 ng·h/mL, the CL/F came to 233 mL/min/kg and the half-life is 72 min. Also, the Cmax in data set [1] was 2940 ng/mL. In the data set on HCT116 MTAP-/- cells, this molecule yielded a concentration for half-maximal inhibition (IC50) of 10.2 nM.
